This note sets out measurements from ChEMBL document CHEMBL1201862, “PubChem BioAssay data set” (2004).

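Results reflect a 48-hour exposure of cells in 96-well plates to compound at five concentrations. Abbreviation: GI50, concentration required for 50% inhibition of growth.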 Active and inactive are the calls of the source. Cut-off read from the data, not from the text of the source: active = GI50 up to about 1.1 µM and inactive = higher.

Some test systems named below: OVCAR-8; UACC-257; SR; SNB-75; SNB-19; MDA-N; Malme-3M; LOX IMVI; NCI-H522; CCRF-CEM; KM12; MDA-MB-435; ACHN; HCT-116; NCI-H23; MDA-MB-231; MOLT-4; SK-MEL-5; SW-620; BT-549.
Assay in all cases: inhibition of tumour cell growth, NCI panel, 48 h

Turning to `O=C1NC(c2cccc(OCc3ccccc3)c2)Nc2ccccc21` (stereo not drawn), the GI50 with OVCAR-8 is 0.315 µM (active); in the experiment with UACC-257, 1.36 µM (inactive); in the experiment with SR, < 0.0298 µM (active); in the experiment with SNB-75, 0.0703 µM (active); with SNB-19, 0.324 µM (active); with MDA-N it was 0.0187 µM (active). Also, the GI50 in the experiment on Malme-3M was 0.0897 µM (active); in the experiment on LOX IMVI, 0.252 µM (active); with NCI-H522, 0.213 µM (active); in the experiment on CCRF-CEM, 0.0479 µM (active); with KM12, 17.5 µM (inactive); in the experiment on MDA-MB-435 it was 0.023 µM (active). For the same compound, the GI50 with ACHN is 0.442 µM (active); in the experiment with HCT-116, 0.0465 µM (active); in the experiment on NCI-H23 it was 0.424 µM (active); in the experiment with MDA-MB-231, 0.251 µM (active); with MOLT-4, 0.23 µM (active); with SK-MEL-5, 0.0326 µM (active). In addition, in the experiment with SW-620, the GI50 was 0.0938 µM (active).

For the compound `COc1ccc(C2=NNC(=O)c3ccccc3N2c2nc(-c3cccs3)nc3cc(OC)c(OC)cc23)cc1`, the GI50 was 5.05 µM (inactive) in the experiment on OVCAR-8; 4.19 µM (inactive) with UACC-257; 0.673 µM (active) in the experiment on SR; 3.81 µM (inactive) in the experiment on SNB-75; 2.79 µM (inactive) with SNB-19; 2.6 µM (inactive) in the experiment with Malme-3M. Besides, the GI50 was 5.98 µM (inactive) in the experiment on NCI-H522; 4.09 µM (inactive) with KM12; 3.75 µM (inactive) in the experiment with MDA-MB-435; 3.07 µM (inactive) in the experiment with ACHN; 3.92 µM (inactive) in the experiment with HCT-116; 2.62 µM (inactive) with BT-549. Besides, the GI50 was 7.13 µM (inactive) with NCI-H23; 2.81 µM (inactive) in the experiment on MDA-MB-231; 16.6 µM (inactive) in the experiment on MOLT-4; 3.72 µM (inactive) with SK-MEL-5; 4.86 µM (inactive) in the experiment with SW-620.

Consider `Fc1cc(-c2cc(-c3ccc4c(c3)OCO4)n[nH]2)c(Cl)cc1Cl`, for which the GI50 with OVCAR-8 was 1.85 µM (inactive); in the experiment on UACC-257, 9.82 µM (inactive); in the experiment on SR, 7.29 µM (inactive); in the experiment with SNB-75 it was 1.8 µM (inactive); in the experiment on SNB-19, 3.5 µM (inactive); in the experiment with Malme-3M, 4.94 µM (inactive). Moreover, the GI50 in the experiment with LOX IMVI is 2.95 µM (inactive); with NCI-H522 it was 4.1 µM (inactive); in the experiment on CCRF-CEM, 11.9 µM (inactive); in the experiment with KM12 it was 3.01 µM (inactive); with MDA-MB-435 it was 4.88 µM (inactive); with ACHN, 1.95 µM (inactive). The GI50 with HCT-116 was 2 µM (inactive); in the experiment on BT-549, 6.59 µM (inactive); in the experiment with NCI-H23 it was 2.47 µM (inactive); in the experiment with MDA-MB-231, 1.75 µM (inactive); in the experiment on MOLT-4, > 32.2 µM (inactive); with SK-MEL-5, 6.38 µM (inactive). The GI50 with SW-620 is 4.6 µM (inactive).

With `O=c1ccn(C2OC(CN(O)CCC3C(CO)OC(n4ccc(=O)[nH]c4=O)C3O)C(O)C2O)c(=O)[nH]1` (stereo not drawn), the GI50 in the experiment on OVCAR-8, in the experiment with UACC-257, with SNB-75, with SNB-19, with MDA-N and with Malme-3M was > 100 µM (inactive) throughout. The GI50 in the experiment on CCRF-CEM, with KM12, with MDA-MB-435, in the experiment on ACHN, with HCT-116 and with BT-549 was > 100 µM (inactive) in each case. Also, the GI50 in the experiment with NCI-H23, with MDA-MB-231, in the experiment with MOLT-4, with SK-MEL-5 and with SW-620 was > 100 µM (inactive) each time.

Regarding `COc1cc(S(=O)(=O)Nc2ccc(-c3csc(N4C(=O)C(C)SC4c4ccccc4)n3)cc2)ccc1Cl` (stereo not drawn), the GI50 in the experiment with OVCAR-8 is > 100 µM (inactive); with UACC-257, 37.4 µM (inactive); with SR it was 25 µM (inactive); with SNB-75, 0.0555 µM (active); in the experiment with SNB-19, 35.7 µM (inactive); in the experiment on MDA-N, 19.5 µM (inactive). Further, the GI50 in the experiment on Malme-3M is 80.4 µM (inactive); in the experiment with LOX IMVI, 10.1 µM (inactive); with NCI-H522, 33.8 µM (inactive); with CCRF-CEM, 40 µM (inactive); in the experiment on KM12, 0.082 µM (active); with MDA-MB-435, 24.6 µM (inactive). Also, the GI50 in the experiment on ACHN was > 100 µM (inactive); in the experiment with HCT-116, 34.8 µM (inactive); in the experiment with BT-549, 20.9 µM (inactive); in the experiment with NCI-H23 it was 51.4 µM (inactive); with MOLT-4, 33 µM (inactive); in the experiment on SK-MEL-5, 19.5 µM (inactive). In the experiment on SW-620, the GI50 is 35.4 µM (inactive).

Regarding `O=c1nc2ccc3sc4ccccc4c(=O)c3n2c(=O)[nH]1`, the GI50 in the experiment with OVCAR-8, in the experiment with UACC-257, with SR, in the experiment with SNB-75, in the experiment with SNB-19 and with MDA-N was > 100 µM (inactive) in each case. Also, the GI50 with Malme-3M was > 100 µM (inactive); in the experiment with LOX IMVI it was > 100 µM (inactive); in the experiment on NCI-H522, 73.8 µM (inactive); in the experiment with CCRF-CEM it was > 100 µM (inactive); in the experiment with KM12, > 100 µM (inactive); in the experiment with MDA-MB-435, > 100 µM (inactive). Also, the GI50 in the experiment on ACHN, with HCT-116, in the experiment on NCI-H23, in the experiment on MDA-MB-231, with MOLT-4 and in the experiment with SK-MEL-5 was > 100 µM (inactive) throughout. In addition, in the experiment on SW-620, the GI50 was > 100 µM (inactive).

Take `COC(=O)C1CCCCCCCCCCC12SCCCS2` (stereo not drawn): the GI50 in the experiment on OVCAR-8 was 23.4 µM (inactive); in the experiment on UACC-257, 17.5 µM (inactive); in the experiment on SR, 11.5 µM (inactive); in the experiment with SNB-75, 19.1 µM (inactive); in the experiment on SNB-19, 18.2 µM (inactive); in the experiment on MDA-N it was 30.8 µM (inactive). The GI50 was 20.3 µM (inactive) in the experiment with Malme-3M; 18.3 µM (inactive) with LOX IMVI; 17.2 µM (inactive) in the experiment on NCI-H522; 23 µM (inactive) in the experiment with CCRF-CEM; 18.1 µM (inactive) with KM12; 16.4 µM (inactive) in the experiment with MDA-MB-435. Moreover, the GI50 in the experiment on ACHN was 19 µM (inactive); with HCT-116 it was 16.3 µM (inactive); with NCI-H23, 34.8 µM (inactive); in the experiment with MDA-MB-231, 21.7 µM (inactive); with MOLT-4 it was 15.8 µM (inactive); with SK-MEL-5, 18.7 µM (inactive). The GI50 in the experiment on SW-620 is 27.2 µM (inactive).

On to `CC(C)(C)OC(=O)N(CCCCNC(=O)c1ccccc1)CCCNC(=O)c1ccccc1`, for which the GI50 with OVCAR-8 is > 100 µM (inactive); in the experiment with UACC-257 it was > 100 µM (inactive); with SR, 49.3 µM (inactive); with SNB-75, > 100 µM (inactive); in the experiment on SNB-19, > 100 µM (inactive); in the experiment on NCI-H522, > 100 µM (inactive). The GI50 was 72.1 µM (inactive) with CCRF-CEM; > 100 µM (inactive) in the experiment on KM12; > 100 µM (inactive) with MDA-MB-435; > 100 µM (inactive) in the experiment with ACHN; > 100 µM (inactive) in the experiment with HCT-116; > 100 µM (inactive) in the experiment with BT-549. Besides, the GI50 is > 100 µM (inactive) in the experiment on NCI-H23; > 100 µM (inactive) with MDA-MB-231; 46.8 µM (inactive) in the experiment on MOLT-4; > 100 µM (inactive) in the experiment with SK-MEL-5; > 100 µM (inactive) in the experiment on SW-620.

Turning to `Cc1ccsc1/C=N/Nc1ncccn1`, the GI50 in the experiment with OVCAR-8, with UACC-257, with SNB-75, in the experiment on SNB-19, with MDA-N and in the experiment on Malme-3M was > 100 µM (inactive) throughout. In addition, the GI50 in the experiment on LOX IMVI is > 100 µM (inactive); in the experiment on CCRF-CEM, > 100 µM (inactive); with KM12, 32.4 µM (inactive); with MDA-MB-435, > 100 µM (inactive); in the experiment on ACHN it was > 100 µM (inactive); with HCT-116, > 100 µM (inactive). In addition, the GI50 in the experiment with BT-549, in the experiment with NCI-H23, in the experiment with MDA-MB-231, in the experiment with MOLT-4, in the experiment on SK-MEL-5 and with SW-620 was > 100 µM (inactive) in each case.

On to `Clc1ccc(C2=NCON=C2c2ccc(Cl)cc2)cc1`, for which the GI50 with OVCAR-8 was 25.6 µM (inactive); in the experiment with UACC-257 it was 25.1 µM (inactive); in the experiment on SNB-75 it was 24.8 µM (inactive); in the experiment with SNB-19 it was 28 µM (inactive); with MDA-N, 18.8 µM (inactive); in the experiment with Malme-3M, 14.5 µM (inactive). Moreover, the GI50 was 15.1 µM (inactive) with LOX IMVI; 24.3 µM (inactive) with CCRF-CEM; 15.5 µM (inactive) in the experiment on KM12; 19 µM (inactive) in the experiment on ACHN; 13.6 µM (inactive) in the experiment with HCT-116; 19.5 µM (inactive) in the experiment with BT-549. Moreover, the GI50 is 16.8 µM (inactive) in the experiment with NCI-H23; 18.1 µM (inactive) in the experiment on MDA-MB-231; 15.9 µM (inactive) in the experiment with MOLT-4; 16.6 µM (inactive) in the experiment on SK-MEL-5; 19.9 µM (inactive) with SW-620.

As to `COC(=O)C(NC(=O)c1ccccc1)c1ccco1` (stereo not drawn), the GI50 with OVCAR-8, in the experiment on UACC-257, with SR, in the experiment on SNB-75, in the experiment with SNB-19 and in the experiment on MDA-N was > 100 µM (inactive) each time. Moreover, the GI50 in the experiment on Malme-3M, with CCRF-CEM, in the experiment on KM12, in the experiment with MDA-MB-435, in the experiment with ACHN and in the experiment on HCT-116 was > 100 µM (inactive) throughout. Moreover, the GI50 in the experiment with BT-549, with NCI-H23, in the experiment with MOLT-4, in the experiment on SK-MEL-5 and in the experiment on SW-620 was > 100 µM (inactive) throughout.
